Data as given in US9738634B2, “Heterocyclic amide compound and herbicide” (SYNGENTA PARTICIPATIONS AG, priority 2013, dated 2017).

Columns and labels:
Type in all cases: in vivo
[1] = system: catchweed; assay: Test Example 3: weedkilling efficacy through soil treatment; O: catchweed; conditions: treatment dosage 1250 g/ha
In short: (§1)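 Crop and weed responses were judged three weeks after a uniform surface spray of the water-diluted emulsion at the given g/ha rate. Seeds sat beneath about 1.5 cm of sterilized diluvial soil, and boxes stood in a greenhouse at 25 to 30° C.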

[2] = system: chickweed; assay: Test Example 3: weedkilling efficacy through soil treatment; N: chickweed; conditions: treatment dosage 1250 g/ha
In short: as §1

[3] = system: wild oat; assay: Test Example 3: weedkilling efficacy through soil treatment; G: wild oat; conditions: treatment dosage 1250 g/ha
In short: as §1

[4] = system: barnyard grass; assay: Test Example 2: weedkilling efficacy, growth period weed treatment in the submerged state; A: barnyard grass; conditions: treatment dosage 1000 g/ha
In short: (§2)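 Barnyard grass, bulrush and oval-leafed pondweed sown in alluvial soil under 4 cm flooding, greenhouse 25 to 30° C. At 1-2 leaf stage, water-diluted emulsion applied to the water surface at stated g/ha dosages; effects scored 3 weeks later.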

[5] = system: transplanted rice; assay: Test Example 1: preemergent weed treatment in the submerged state, effect on crop; a: transplanted rice; conditions: treatment dosage 1000 g/ha
In short: (§3)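 Visual scores against set criteria were taken 3 weeks after treatment. Compounds, as diluted emulsions at specified g/ha, went onto the water surface of 4 cm-flooded alluvial soil pots on the day weeds were sown and 2.5-leaf rice was transplanted; greenhouse held 25–30 °C.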

[6] = system: Indian mallow; assay: Test Example 3: weedkilling efficacy through soil treatment; K: Indian mallow; conditions: treatment dosage 1250 g/ha
In short: as §1

[7] = system: fig-leafed goosefoot; assay: Test Example 4: weedkilling efficacy by foliar treatment; M: fig-leafed goosefoot; conditions: treatment dosage 1250 g/ha
In short: (§4)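 Seeds are spot-sown into sterilized diluvial soil and covered with about 1.5 cm of soil. After 14 days' greenhouse growth at 25 to 30° C, plants are sprayed on stems and leaves with diluted emulsion at the stated g/ha rate, then scored at 3 weeks.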

[8] = system: green foxtail; assay: Test Example 3: weedkilling efficacy through soil treatment; E: green foxtail; conditions: treatment dosage 1250 g/ha
In short: as §1

[9] = system: crabgrass; assay: Test Example 3: weedkilling efficacy through soil treatment; D: crabgrass; conditions: treatment dosage 1250 g/ha
In short: as §1

[10] = system: Italian ryegrass; assay: Test Example 4: weedkilling efficacy by foliar treatment; I: Italian ryegrass; conditions: treatment dosage 1250 g/ha
In short: as §4

[11] = system: Italian ryegrass; assay: Test Example 3: weedkilling efficacy through soil treatment; I: Italian ryegrass; conditions: treatment dosage 1250 g/ha
In short: as §1

[12] = system: fig-leafed goosefoot; assay: Test Example 3: weedkilling efficacy through soil treatment; M: fig-leafed goosefoot; conditions: treatment dosage 1250 g/ha
In short: as §1

[13] = system: catchweed; assay: Test Example 4: weedkilling efficacy by foliar treatment; O: catchweed; conditions: treatment dosage 1250 g/ha
In short: as §4

[14] = system: beet; assay: Test Example 4: foliar treatment, effect on crop; f: beet; conditions: treatment dosage 1250 g/ha
In short: as §4

[15] = system: black-grass; assay: Test Example 3: weedkilling efficacy through soil treatment; H: black-grass; conditions: treatment dosage 1250 g/ha
In short: as §1

[16] = system: birds-eye speedwell; assay: Test Example 3: weedkilling efficacy through soil treatment; p: birds-eye speedwell; conditions: treatment dosage 1250 g/ha
In short: as §1

[17] = system: directly sown rice; assay: Test Example 4: foliar treatment, effect on crop; b: directly sown rice; conditions: treatment dosage 1250 g/ha
In short: as §4

[18] = system: wheat; assay: Test Example 3: soil treatment, effect on crop; e: wheat; conditions: treatment dosage 1250 g/ha
In short: as §1

[19] = system: wheat; assay: Test Example 4: foliar treatment, effect on crop; e: wheat; conditions: treatment dosage 1250 g/ha
In short: as §4

[20] = system: redroot pigweed; assay: Test Example 4: weedkilling efficacy by foliar treatment; L: redroot pigweed; conditions: treatment dosage 1250 g/ha
In short: as §4

[21] = system: black-grass; assay: Test Example 4: weedkilling efficacy by foliar treatment; H: black-grass; conditions: treatment dosage 1250 g/ha
In short: as §4

[22] = system: soybean; assay: Test Example 4: foliar treatment, effect on crop; d: soybean; conditions: treatment dosage 1250 g/ha
In short: as §4

[23] = system: oval-leafed pondweed; assay: Test Example 1: weedkilling efficacy, preemergent weed treatment in the submerged state; C: oval-leafed pondweed; conditions: treatment dosage 1000 g/ha
In short: as §3

[24] = system: corn; assay: Test Example 3: soil treatment, effect on crop; c: corn; conditions: treatment dosage 1250 g/ha
In short: as §1

[25] = system: corn; assay: Test Example 4: foliar treatment, effect on crop; c: corn; conditions: treatment dosage 1250 g/ha
In short: as §4

[26] = system: barnyard grass; assay: Test Example 1: weedkilling efficacy, preemergent weed treatment in the submerged state; A: barnyard grass; conditions: treatment dosage 1000 g/ha
In short: as §3

[27] = system: crabgrass; assay: Test Example 4: weedkilling efficacy by foliar treatment; D: crabgrass; conditions: treatment dosage 1250 g/ha
In short: as §4

[28] = system: oval-leafed pondweed; assay: Test Example 2: weedkilling efficacy, growth period weed treatment in the submerged state; C: oval-leafed pondweed; conditions: treatment dosage 1000 g/ha
In short: as §2

[29] = system: birds-eye speedwell; assay: Test Example 4: weedkilling efficacy by foliar treatment; p: birds-eye speedwell; conditions: treatment dosage 1250 g/ha
In short: as §4

[30] = system: bulrush; assay: Test Example 2: weedkilling efficacy, growth period weed treatment in the submerged state; B: bulrush; conditions: treatment dosage 1000 g/ha
In short: as §2

[31] = system: wild oat; assay: Test Example 4: weedkilling efficacy by foliar treatment; G: wild oat; conditions: treatment dosage 1250 g/ha
In short: as §4

[32] = system: redroot pigweed; assay: Test Example 3: weedkilling efficacy through soil treatment; L: redroot pigweed; conditions: treatment dosage 1250 g/ha
In short: as §1

[33] = system: green foxtail; assay: Test Example 4: weedkilling efficacy by foliar treatment; E: green foxtail; conditions: treatment dosage 1250 g/ha
In short: as §4

[34] = system: bulrush; assay: Test Example 1: weedkilling efficacy, preemergent weed treatment in the submerged state; B: bulrush; conditions: treatment dosage 1000 g/ha
In short: as §3

[35] = system: directly sown rice; assay: Test Example 3: soil treatment, effect on crop; b: directly sown rice; conditions: treatment dosage 1250 g/ha
In short: as §1

[36] = system: beet; assay: Test Example 3: soil treatment, effect on crop; f: beet; conditions: treatment dosage 1250 g/ha
In short: as §1

[37] = system: Indian mallow; assay: Test Example 4: weedkilling efficacy by foliar treatment; K: Indian mallow; conditions: treatment dosage 1250 g/ha
In short: as §4

[38] = system: chickweed; assay: Test Example 4: weedkilling efficacy by foliar treatment; N: chickweed; conditions: treatment dosage 1250 g/ha
In short: as §4

[39] = system: soybean; assay: Test Example 3: soil treatment, effect on crop; d: soybean; conditions: treatment dosage 1250 g/ha
In short: as §1

SMILES: CC1=C(c2cccnc2Cl)C(=O)N(C(C)(C)C(=O)Nc2cccc(Cl)n2)CO1 [B-2-20]
- O (catchweed) weedkilling efficacy grade [1]: 0 (weed kill ratio 5% or less (practically no effect))
- N (chickweed) weedkilling efficacy grade [2]: 3 (weed kill ratio 40% or more, less than 70%)
- G (wild oat) weedkilling efficacy grade [3]: 0 (weed kill ratio 5% or less (practically no effect))
- A (barnyard grass) weedkilling efficacy grade [4]: 1 (weed kill ratio 5% or more, less than 20%)
- a (transplanted rice) effect on crop grade [5]: 0 (weed kill ratio 5% or less (practically no effect))
- K (Indian mallow) weedkilling efficacy grade [6]: 2 (weed kill ratio 20% or more, less than 40%)
- M (fig-leafed goosefoot) weedkilling efficacy grade [7]: 3 (weed kill ratio 40% or more, less than 70%)
- E (green foxtail) weedkilling efficacy grade [8]: 5 (weed kill ratio 90% or more, (practically complete withering))
- D (crabgrass) weedkilling efficacy grade [9]: 3 (weed kill ratio 40% or more, less than 70%)
- I (Italian ryegrass) weedkilling efficacy grade [10]: 4 (weed kill ratio 70% or more, less than 90%)
- I (Italian ryegrass) weedkilling efficacy grade [11]: 5 (weed kill ratio 90% or more, (practically complete withering))
- M (fig-leafed goosefoot) weedkilling efficacy grade [12]: 4 (weed kill ratio 70% or more, less than 90%)
- O (catchweed) weedkilling efficacy grade [13]: 0 (weed kill ratio 5% or less (practically no effect))
- f (beet) effect on crop grade [14]: 4 (weed kill ratio 70% or more, less than 90%)
- H (black-grass) weedkilling efficacy grade [15]: 5 (weed kill ratio 90% or more, (practically complete withering))
- P (birds-eye speedwell) weedkilling efficacy grade [16]: 4 (weed kill ratio 70% or more, less than 90%)
- b (directly sown rice) effect on crop grade [17]: 0 (weed kill ratio 5% or less (practically no effect))
- e (wheat) effect on crop grade [18]: 0 (weed kill ratio 5% or less (practically no effect))
- e (wheat) effect on crop grade [19]: 0 (weed kill ratio 5% or less (practically no effect))
- L (redroot pigweed) weedkilling efficacy grade [20]: 3 (weed kill ratio 40% or more, less than 70%)
- H (black-grass) weedkilling efficacy grade [21]: 4 (weed kill ratio 70% or more, less than 90%)
- d (soybean) effect on crop grade [22]: 3 (weed kill ratio 40% or more, less than 70%)
- C (oval-leafed pondweed) weedkilling efficacy grade [23]: 4 (weed kill ratio 70% or more, less than 90%)
- c (corn) effect on crop grade [24]: 0 (weed kill ratio 5% or less (practically no effect))
- c (corn) effect on crop grade [25]: 1 (weed kill ratio 5% or more, less than 20%)
- A (barnyard grass) weedkilling efficacy grade [26]: 5 (weed kill ratio 90% or more, (practically complete withering))
- D (crabgrass) weedkilling efficacy grade [27]: 5 (weed kill ratio 90% or more, (practically complete withering))
- C (oval-leafed pondweed) weedkilling efficacy grade [28]: 3 (weed kill ratio 40% or more, less than 70%)
- P (birds-eye speedwell) weedkilling efficacy grade [29]: 4 (weed kill ratio 70% or more, less than 90%)
- B (bulrush) weedkilling efficacy grade [30]: 5 (weed kill ratio 90% or more, (practically complete withering))
- G (wild oat) weedkilling efficacy grade [31]: 0 (weed kill ratio 5% or less (practically no effect))
- L (redroot pigweed) weedkilling efficacy grade [32]: 4 (weed kill ratio 70% or more, less than 90%)
- E (green foxtail) weedkilling efficacy grade [33]: 5 (weed kill ratio 90% or more, (practically complete withering))
- B (bulrush) weedkilling efficacy grade [34]: 5 (weed kill ratio 90% or more, (practically complete withering))
- b (directly sown rice) effect on crop grade [35]: 4 (weed kill ratio 70% or more, less than 90%)
- f (beet) effect on crop grade [36]: 4 (weed kill ratio 70% or more, less than 90%)
- K (Indian mallow) weedkilling efficacy grade [37]: 0 (weed kill ratio 5% or less (practically no effect))
- N (chickweed) weedkilling efficacy grade [38]: 2 (weed kill ratio 20% or more, less than 40%)
- d (soybean) effect on crop grade [39]: 0 (weed kill ratio 5% or less (practically no effect))
